According to the CheMixHub drug solubility set:

Experiment: xn = mol fraction of the nth substance listed, in the solute-free solvent

Cc1ccc2cc(Br)ccc2n1 + CO + O
solubility (g/100 g solution)
Details	278.15 K	283.15 K	288.15 K	293.15 K	298.15 K	303.15 K	308.15 K	313.15 K	318.15 K	323.15 K
x2 = 0.05881	0.0126	0.0148	0.0176	0.0206	0.0242	0.0281	0.0331	0.0386	0.045	0.0524
x2 = 0.1233	0.0194	0.0228	0.0268	0.0314	0.0369	0.0428	0.0502	0.0586	0.0682	0.0793
x2 = 0.1942	0.0298	0.0349	0.0409	0.0477	0.056	0.0651	0.0761	0.0886	0.103	0.12
x2 = 0.2727	0.0444	0.052	0.0607	0.0706	0.0828	0.0963	0.112	0.131	0.152	0.177
x2 = 0.3599	0.0588	0.0705	0.0835	0.0981	0.115	0.135	0.156	0.18	0.21	0.245
x2 = 0.4576	0.0792	0.095	0.112	0.133	0.155	0.18	0.21	0.245	0.283	0.331
x2 = 0.5675	0.097	0.117	0.14	0.166	0.195	0.228	0.266	0.311	0.361	0.421
x2 = 0.6923	0.118	0.142	0.169	0.199	0.233	0.272	0.318	0.374	0.436	0.511
x2 = 0.835	0.133	0.159	0.19	0.227	0.27	0.317	0.368	0.429	0.504	0.593
